Test results from patent US4698350A, “1-ethyl-6-fluoro-1,4-dihydro- 7-(2,6-dimethyl-4-pyridinyl)-4-oxo-3-quinolinecarboxylic acid and antibacterial use thereof” (Sterling Drug Inc., priority 1984, dated 1987).
In brackets after ≈: the same amount, converted by molar mass. Read-outs that look alike come from different tables or passages of the source.

Experiments:
Format in all cases: cell-based
[1] = system: Streptococcus sp.; assay: In vitro MIC/MBC summary (Table II)
Method: (§1) Win 52,522 and Win 35,439 were solubilized in 0.1 ml of 0.5 N NaOH/mg of compound and diluted in sterile distilled water to 160 mcg/ml. Vancomycin and methicillin were solubilized in sterile distilled water to 1250 mcg/ml of base compound. The stock solutions were sterilized by filtration through membrane filters with a 0.45 μm pore size.
(§2) The bacterial cultures listed in Table I (hereinbelow) were grown overnight at 37° C. in MHB for all cultures except the Streptococcus strains. These were grown in BHI+10% NHS. The overnight broth cultures were adjusted to an optical density of 0.10 (650 nm, B L Spectronic 20) in sterile distilled water and subsequently diluted to 6.7×10^6 cells/ml in MHB or BHI+1% NHS.
(§3) Serial two-fold dilutions of the compound solutions were prepared in MHB (or in BHI+1% NHS for tests with Streptococci) and dispensed into 96-well microtiter trays in a volume of 0.1 ml/well using a Sandy Springs (Bellco Glass Co.) dispenser. The trays were then inoculated with 0.0015 ml of a suspension containing 6.7×10^6 cells/ml of the appropriate inoculum using a MIC-2000 inoculator (Dynatech Corp.) resulting in a final inoculum of approximately 1×10^4 cells/well or 1×10^5 cells/ml. The trays were incubated at 37° C. for 18-20 hours and the minimal inhibitory concentration (MIC), defined as the lowest concentration of compound to inhibit visible bacterial growth, was recorded.
(§4) After the MIC values were recorded, the contents in the microtiter trays were thoroughly mixed on a Bellco Mini-orbital Shaker (Bellco Glass Co.) for 3 min. at a setting of 8. A portion (0.0015 ml) from each well was then transferred via an MIC-2000 inoculator to plates containing MHA or BHI agar+10% NHS. The plates were incubated at 37° C. for 18-20 hrs. The minimal bactericidal concentration (MBC), defined as the lowest concentration of compound that prevented the formation of a recognizable colony on the agar surface, was recorded.

[2] = system: S. aureus; assay: In vitro MIC/MBC summary (Table II); details: Staphylococcus aureus, 15 S. aureus strains
Method: as §1, §2, §3, §4

[3] = system: S. aureus 39881; assay: In vitro antibacterial MIC/MBC test; details: Staphylococcus aureus, S. aureus 39881
Outline: (§5)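 In this microdilution assay, strains are exposed to two-fold compound dilutions in MHB (streptococci in BHI+1% NHS) at roughly 1×10^4 cells per well for 18-20 hours at 37° C. Visible growth defines the MIC. Subculture onto MHA or BHI agar+10% NHS defines the MBC.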

[4] = system: S. aureus 59-81; assay: In vitro antibacterial MIC/MBC test; details: Staphylococcus aureus, 5981, S. aureus 59-81
Outline: as §5

[5] = system: S. faecalis 4510; assay: In vitro antibacterial MIC/MBC test; details: Enterococcus faecalis, S. faecalis 4510
Outline: as §5

[6] = system: S. aureus (25923); assay: In vitro antibacterial MIC/MBC test; details: Staphylococcus aureus, ATCC25923, S. aureus ATCC No. 25923
Outline: as §5

[7] = system: S. aureus 10-81; assay: In vitro antibacterial MIC/MBC test; details: Staphylococcus aureus, 1081, S. aureus 10-81
Outline: as §5

[8] = system: S. pyogenes C203; assay: In vitro antibacterial MIC/MBC test; details: Streptococcus pyogenes, S. pyogenes C203
Outline: as §5

[9] = system: S. epidermidis 1-3-H; assay: In vitro antibacterial MIC/MBC test; details: Staphylococcus epidermidis, 13H, S. epidermidis 1-3-H
Outline: as §5

[10] = system: S. faecalis (8043); assay: In vitro antibacterial MIC/MBC test; details: Enterococcus faecalis, ATCC8043, S. faecalis ATCC No. 8043
Outline: as §5

[11] = system: S. aureus VA16951; assay: In vitro antibacterial MIC/MBC test; details: Staphylococcus aureus, S. aureus VA16951
Outline: as §5

[12] = system: S. aureus 13-8-A; assay: In vitro antibacterial MIC/MBC test; details: Staphylococcus aureus, 138A, S. aureus 13-8-A
Outline: as §5

[13] = system: S. aureus 24-81; assay: In vitro antibacterial MIC/MBC test; details: Staphylococcus aureus, 2481, S. aureus 24-81
Outline: as §5

[14] = system: S. aureus S-234; assay: In vitro antibacterial MIC/MBC test; details: Staphylococcus aureus, S234, S. aureus S-234
Outline: as §5

[15] = system: S. pyogenes 7948-15; assay: In vitro antibacterial MIC/MBC test; details: Streptococcus pyogenes, 794815, S. pyogenes 7948-15
Outline: as §5

[16] = system: S. enterococcus 0-2-13; assay: In vitro antibacterial MIC/MBC test
Outline: as §5

[17] = system: S. aureus 21-81A; assay: In vitro antibacterial MIC/MBC test; details: Staphylococcus aureus, 2181A, S. aureus 21-81A
Outline: as §5

In the case of `CCn1cc(C(=O)O)c(=O)c2cc(F)c(-c3cc(C)nc(C)c3)cc21` [Win 52,522, 1-ethyl-6-fluoro-1,4-dihydro-7-(2,6-dimethyl-4-pyridinyl)-4-oxo-3-quinolinecarboxylic acid], the MBC ([1]; 9 Streptococcus sp. strains, read-out: MBC 50%) is reported as 0.5 µg/mL (≈ 1.47 µM), the MBC ([1]; 9 Streptococcus sp. strains, read-out: MBC 90%) is reported as 0.5 µg/mL (≈ 1.47 µM) and the MBC ([1]; 9 Streptococcus sp. strains, read-out: MBC Range) is reported as 0.125 to 0.5 µg/mL (≈ 0.367 to 1.47 µM). The MIC50 ([1]; 9 Streptococcus sp. strains, read-out: MIC 50%) was 0.25 µg/mL (≈ 0.735 µM), the MIC ([1]; 9 Streptococcus sp. strains, read-out: MIC Range) was 0.125 to 0.5 µg/mL (≈ 0.367 to 1.47 µM) and the MIC90 ([1]; Streptococcus) was 0.5 µg/mL (≈ 1.47 µM). The MBC ([2]; read-out: MBC Range) was 0.015 to 0.06 µg/mL (≈ 0.0441 to 0.176 µM), the MIC50 ([2]; read-out: MIC 50%) was 0.015 µg/mL (≈ 0.0441 µM) and the MIC90 ([2]; read-out: MIC 90%) was 0.03 µg/mL (≈ 0.0881 µM). For the same compound, the MIC ([2]; read-out: MIC Range) was 0.008 to 0.03 µg/mL (≈ 0.0235 to 0.0881 µM), the MBC ([3]; read-out: MBC) was 0.03 µg/mL (≈ 0.0881 µM) and the MIC ([3]; read-out: MIC) was 0.015 µg/mL (≈ 0.0441 µM). For the same compound, the MBC ([4]; read-out: MBC) was 0.03 µg/mL (≈ 0.0881 µM), the MIC ([4]; read-out: MIC) was 0.015 µg/mL (≈ 0.0441 µM) and the MBC ([5]; read-out: MBC) was 0.125 µg/mL (≈ 0.367 µM). It also gave an MIC ([5]; read-out: MIC) of 0.125 µg/mL (≈ 0.367 µM), an MBC ([6]; read-out: MBC) of 0.03 µg/mL (≈ 0.0881 µM) and an MIC ([6]; read-out: MIC) of 0.015 µg/mL (≈ 0.0441 µM). It also gave an MBC ([7]; read-out: MBC) of 0.03 µg/mL (≈ 0.0881 µM), an MIC ([7]; read-out: MIC) of 0.03 µg/mL (≈ 0.0881 µM) and an MBC ([8]; read-out: MBC) of 0.5 µg/mL (≈ 1.47 µM). For the same compound, the MIC ([8]; read-out: MIC) was 0.5 µg/mL (≈ 1.47 µM), the MBC ([9]; read-out: MBC) was 0.06 µg/mL (≈ 0.176 µM) and the MIC ([9]; read-out: MIC) was 0.06 µg/mL (≈ 0.176 µM). For the same compound, the MBC ([10]; read-out: MBC) was 0.5 µg/mL (≈ 1.47 µM), the MIC ([10]; read-out: MIC) was 0.25 µg/mL (≈ 0.735 µM) and the MBC ([11]; read-out: MBC) was 0.015 µg/mL (≈ 0.0441 µM). The MIC ([11]; read-out: MIC) was 0.015 µg/mL (≈ 0.0441 µM), the MBC ([12]; read-out: MBC) was 0.03 µg/mL (≈ 0.0881 µM) and the MIC ([12]; read-out: MIC) was 0.03 µg/mL (≈ 0.0881 µM). For the same compound, the MBC ([13]; read-out: MBC) was 0.03 µg/mL (≈ 0.0881 µM), the MIC ([13]; read-out: MIC) was 0.015 µg/mL (≈ 0.0441 µM) and the MBC ([14]; read-out: MBC) was 0.03 µg/mL (≈ 0.0881 µM). The MIC ([14]; read-out: MIC) was 0.015 µg/mL (≈ 0.0441 µM), the MBC ([15]; read-out: MBC) was 0.5 µg/mL (≈ 1.47 µM) and the MIC ([15]; read-out: MIC) was 0.5 µg/mL (≈ 1.47 µM). For the same compound, the MBC ([16]; 0213, S. enterococcus 0-2-13, read-out: MBC) was 0.25 µg/mL (≈ 0.735 µM), the MIC ([16]; 0213, S. enterococcus 0-2-13, read-out: MIC) was 0.25 µg/mL (≈ 0.735 µM) and the “potency relative to vancomycin” value ([16]; in vitro, enterococcus strain 0-2-B) was “equal in potency”. The MBC ([17]; read-out: MBC) was 0.015 µg/mL (≈ 0.0441 µM) and the MIC ([17]; read-out: MIC) was 0.015 µg/mL (≈ 0.0441 µM).
